Where two headings read alike, the source gives them in different places.
Columns and labels:
human basophils = test: Inhibition of mediator (histamine, peptide leukotriene) liberation from human basophils stimulated with mite antigen; assay type: cell-based; conditions: enzyme immunoassay
Outline: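 Dextran-separated leukocyte fraction containing basophils from heparinized human blood, in D-PBS(+) with 0.1% BSA, pretreated with compound 15 min at 37 °C, then challenged with mite antigen for 10 min. Released histamine and peptide leukotrienes in supernatant quantified by enzyme immunoassay.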

[1] = target: T1, tyrosine kinase of 72 kDa (Rattus norvegicus, UniProt Q64725); test: Inhibition of activation (phosphorylation) of tyrosine kinase of 72 kDa due to antigenic stimulation in RBL-2H3 cells; assay type: cell-based
T1 construct: endogenous in cells; host or cells: RBL-2H3 cells
Protocol: RBL-2H3 cells were incubated for 10 min together with a test compound in a PBS buffer containing 0.1% of BSA and 1 mM of calcium. Next, the cells were reacted with an antigen specific for the IgE receptor for 10 min. After the completion of the antigenic stimulation, the cells were allowed to stand in ice for 1 hr in a 10 mM phosphate buffer (pH 7.5) containing a lysis buffer (1% Triton X-100, 0.1% SDS, 0.5% sodium deoxycholate, 50 mM NaCl, 50 mM NaF, 1 mM phenylmethyl sulfonyl fluoride, 50 μg/ml eupeptin, 10 unit/ml aprotonin) and 0.1% of NaN3 followed by centrifugation to give a cell lysate. This lysate was diluted with a buffer for electrophoresis, heated (95° C., 5 min) and then electrophoresed on a 10% SDS-polyacrylamide gel. After the electrophoresis, the sample was electrically transcribed onto a 0.2 μm nitrocellulose membrane and treated with an anti-phosphotyrosine antibody for 1 hr. Then the inhibitory activity was evaluated by the coloring analysis through chemiluminescence.

[2] = target: T2, IgE receptor γ chain and 72 kDa tyrosine kinase (Rattus norvegicus, UniProt Q64725); test: Inhibition of binding of IgE receptor γ chain to tyrosine kinase of 72 kDa (kinase phosphorylation in RBL-2H3 lysate or cytosol); assay type: biochemical; conditions: Conc. of Compd. 10 μM
T2 construct: The phosphorylation experiment of the 72 kDa tyrosine kinase contained in the lysate or cytosol; endogenous in cells; host or cells: RBL-2H3 cell lysate (1% NP-40) or cytosolic fraction
Protocol: RBL-2H3 cells which are a cell line generally used in studying IgE-mediated intracellular signal transduction in mast cells and basophils were used in this study. Tyrosine-phosphorylated peptide in the tyrosine activation motif (TAM) region in the IgE receptor γ chain was synthesized by Peptide Institute.
In the experiment, cell lysates or cytosolic fraction of RBL-2H3 cells were used. Cell lysates were prepared by solubilizing 1×10^7 to 5×10^7 cells with a solution containing various protease inhibitors and 1%-NP-40 as a solubilizer. Separately, the cells were homogenized in a Downs homogenizer and centrifuged at 50,000 rpm for 1 hr, and the resulting supernatant was used as the cytosol fraction of the cells. The concentration of the lysate or cytosol was adjusted to 1 mg protein/ml with an isotonic buffer. The phosphorylation experiment of the 72 kDa tyrosine kinase contained in the lysate or cytosol was carried out in the following manner.
An assay buffer [150 mM NaCl, 10 mM KCl, 20 mM Tris (pH 7.5), 0.6 mM MnCl2, 0.5 mM EGTA, 5 mM NaF, 1 mM sodium pyrophosphate and 1 mM sodium orthovanadate] containing the lysate or cytosol in an amount corresponding to […] of protein was incubated together with the compound 101 at 30° C. for 3 min. After adding […] of the peptide in the TAM region containing the phosphorylated tyrosine and […] of ATP, the incubation was further effected at 30° C. for 15 min. After the completion of the reaction, the sample was electrophoresed on a 10% […] gel and a tyrosine kinase of 72 kDa was separated. The activation of this kinase was confirmed by examining the phosphorylation of the tyrosine moiety in the kinase per se by western blotting with the use of anti-tyrosine phosphorylation antibody. Then the extent of the phosphorylation was numerically expressed by using an image analyzer and thus the tyrosine kinase phosphorylation inhibitory ratio of the compound 101 was determined

RBL-2H3 cells = test: Inhibition of serotonin liberation from IgE-sensitized RBL-2H3 cells after antigen stimulation; assay type: cell-based, rat; conditions: Rattus norvegicus
Outline: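 Rat RBL-2H3 cells labelled with [3H]-serotonin and sensitized with IgE simultaneously, incubated with compound, then challenged with specific antigen. Inhibition derived from [3H]-serotonin released into medium relative to release without compound.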

[3] = histamine, read-out: IC50 (μM) in mediator liberation from human basophils: histamine
[4] = peptide leukotriene, read-out: IC50 (μM) in mediator liberation from human basophils: leukotriene
[5] = [3H]-serotonin release, IgE-sensitized RBL-2H3 cells, antigen stimulation, read-out: IC50 (μM) in serotonin liberation from RBL-2H3 cells

T1 sequence (Q64725 whole entry): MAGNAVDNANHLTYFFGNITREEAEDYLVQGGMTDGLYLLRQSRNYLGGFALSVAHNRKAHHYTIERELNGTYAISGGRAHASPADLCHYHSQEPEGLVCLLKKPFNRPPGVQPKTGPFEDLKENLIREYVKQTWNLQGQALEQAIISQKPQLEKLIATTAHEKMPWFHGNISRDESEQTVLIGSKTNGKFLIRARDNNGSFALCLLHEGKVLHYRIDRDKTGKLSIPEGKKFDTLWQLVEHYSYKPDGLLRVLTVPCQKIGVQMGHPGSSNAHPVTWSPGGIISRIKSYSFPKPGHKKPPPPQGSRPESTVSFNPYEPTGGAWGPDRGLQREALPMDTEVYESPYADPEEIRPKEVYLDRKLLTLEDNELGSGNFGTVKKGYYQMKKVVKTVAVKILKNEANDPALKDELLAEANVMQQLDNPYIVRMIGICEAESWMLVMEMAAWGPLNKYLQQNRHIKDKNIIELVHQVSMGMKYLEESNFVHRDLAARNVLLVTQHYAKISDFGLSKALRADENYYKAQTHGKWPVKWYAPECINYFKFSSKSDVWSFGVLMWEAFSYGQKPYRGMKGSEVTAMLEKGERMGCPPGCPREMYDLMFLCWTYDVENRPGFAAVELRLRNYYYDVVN
T2 sequence (Q64725 whole entry): as above

Row | Compound | IC50 (human basophils; [3]) [µM] | IC50 (human basophils; [4]) [µM] | Inhibitory Strength (%) ([1]; Conc. of Compd. 3 μM) | Inhibitory Strength (%) [2] [%] | IC50 (RBL-2H3 cells; [5]) [µM] | Inhibitory Strength (%) ([1]; Conc. of Compd. 10 μM) | Inhibitory Strength (%) ([1]; Conc. of Compd. 30 μM) | IC50 (RBL-2H3 cells; RBL-2H3, read-out: IC50 (μM) in serotonin liberation from RBL-2H3 cells) [µM]
1 | Cc1ccc2c(c1C)N(CCCNCc1ccccc1)c1ccccc1[S+]2[O-] (centres unmarked) [Example 22, 1,2-Dimethyl-10-(3-benzylaminopropyl)-phenothiazine-5-oxide] | 10 to 30 | 10 | 100 | 80 | 0.1 | – | – | –
2 | Cc1ccc2c(c1C)N(CCCNCc1ccccc1)c1cc(CCO)ccc1[S+]2[O-] (centres unmarked) [Example 94] | 30 to 100 | 10 | 100 | – | < 1 | – | – | –
3 | Cc1ccc2c(c1C)N(CCCN(CCO)Cc1ccccc1)c1ccccc1[S+]2[O-] (centres unmarked) [Example 105] | 30 | 10 to 30 | 100 | – | 2 | – | – | –
4 | Cc1ccc2c(c1C)N(CCCN1CCN(S(=O)(=O)c3ccccc3)CC1)c1ccccc1[S+]2[O-] (centres unmarked) [Example 115] | 30 to 100 | 10 | – | – | 3 | 80 | – | –
5 | Cc1ccc2c(c1C)N(CCCNc1ccccc1)c1ccccc1[S+]2[O-] (centres unmarked) [Example 123] | 30 | 10 to 30 | – | – | 3 | – | 100% | –
6 | Cc1ccc2c(c1C)N(CCCN1CCC(O)(c3ccccc3)CC1)c1ccccc1[S+]2[O-] (centres unmarked) [Example 124] | 10 to 30 | 10 | – | 100 | – | 100 | – | 2
7 | Cc1ccc2c(c1C)N(CCCN1CCC(Cc3ccccc3)CC1)c1ccccc1[S+]2[O-] (centres unmarked) [Example 127] | 10 to 30 | 10 | – | 100 | 2 | 100 | – | –
8 | Cc1ccc2c(c1C)N(C/C=C/CNCc1ccccc1)c1ccccc1[S+]2[O-] (centres unmarked) [Example 138, 1,2-Dimethyl-10-[4-benzylamino(2-butenyl)]phenothiazine-5-oxide] | 10 to 30 | 10 | – | – | 3 | 100 | – | –
9 | Cc1ccc2c(c1C)N(CCCCNCc1ccccc1)c1ccccc1[S+]2[O-] (centres unmarked) [Example 139] | 30 to 100 | 10 to 30 | – | – | 2 | 100 | – | –
10 | Cc1ccc2c(c1C)N(CCNCc1ccccc1)c1ccccc1[S+]2[O-] (centres unmarked) [Example 143, 1,2-Dimethyl-10-(2-benzylaminoethyl)phenothiazine-5-oxide] | < 10 | < 10 | – | – | 3 | 100 | – | –
11 | Cc1ccc2c(c1C)N(CCN(C)Cc1ccccc1O)c1ccccc1[S+]2[O-] (centres unmarked) [Example 179] | 10 to 30 | 3 to 10 | – | – | 2 | 100 | – | –
12 | Cc1ccc2c(c1C)N(CCCNCc1ccccc1)c1cc(CCO)ccc1S2(=O)=O [Example 201] | 10 | < 10 | – | – | 10 | – | 30-70% | –
13 | Cc1ccc2c(c1C)N(CCCN(CCO)Cc1ccccc1)c1ccccc1S2(=O)=O [Example 202] | 10 to 30 | < 10 | – | – | 6 | – | 80% | –
14 | Cc1ccc2c(=NOCCC(=O)O)c3ccccc3n(CCCNCc3ccccc3)c2c1C [Example 235] | 30 | 30 | 100 | – | < 1 | – | – | –

Reference: US6703388B2, “Nitrogen-containing tricyclic compounds and drugs containing the same” (Eisai Co., Ltd., priority 1996, dated 2004)
